Key:
[1] = biological target: T1, KRas^G12S (Homo sapiens, UniProt P01116, G12S); assay: KRas binding assay (TR-FRET tracer displacement), KRas G12S; settings: TR-FRET tracer displacement, KRas G12S
T1 construct: Biotinylated KRas (corresponding to amino acids 1-169, produced at Accelegan Inc.); biotin (biotinylated); purchased Accelegan Inc

[2] = test system: KRas-mediated phosphorylation of ERK in H358 cells; assay: Inhibition of KRas-mediated phosphorylation of ERK (Cisbio HTRF pERK), H358 cells; type: cell-based; settings: Homo sapiens, NCI-H358, 3 h, single point, 100 nM compound, 3 hrs
Summary of the method: (§1)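 Cells were seeded at 6,000 per well and treated for 3 hrs with compound in a 10-dose, 3-fold series from 10 uM (0.8% final DMSO), with 0.2 uM Trametinib as Min control. Lysates made at 4° C over 40 mins were incubated 2 hrs at room temperature with d2- and Cryptate-labelled antibodies, then read by HTRF.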

[3] = biological target: T2, KRas^G13D (Homo sapiens, UniProt P01116, G13D); assay: KRas binding assay (TR-FRET tracer displacement), KRas G13D; settings: TR-FRET tracer displacement, KRas G13D
T2 construct: Biotinylated KRas (corresponding to amino acids 1-169, produced at Accelegan Inc.); biotin (biotinylated); purchased Accelegan Inc
T2 sequence (P01116 1-169 isoform P01116-2 G13D): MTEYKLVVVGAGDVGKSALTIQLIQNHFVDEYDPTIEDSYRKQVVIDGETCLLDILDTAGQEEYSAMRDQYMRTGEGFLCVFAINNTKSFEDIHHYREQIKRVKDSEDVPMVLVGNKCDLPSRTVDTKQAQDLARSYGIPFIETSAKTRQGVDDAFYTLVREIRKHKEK

[4] = biological target: T3, KRas^WT (Homo sapiens, UniProt P01116); assay: KRas binding assay (TR-FRET tracer displacement), KRas WT; settings: TR-FRET tracer displacement, KRas WT
T3 construct: Biotinylated KRas (corresponding to amino acids 1-169, produced at Accelegan Inc.); biotin (biotinylated); purchased Accelegan Inc
T3 sequence (P01116 1-169 isoform P01116-2): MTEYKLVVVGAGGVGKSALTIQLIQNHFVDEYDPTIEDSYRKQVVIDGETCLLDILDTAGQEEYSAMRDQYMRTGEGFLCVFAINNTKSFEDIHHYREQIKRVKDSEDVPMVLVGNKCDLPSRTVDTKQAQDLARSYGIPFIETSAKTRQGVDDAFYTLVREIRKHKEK

[5] = biological target: T4, KRas^G12A (Homo sapiens, UniProt P01116, G12A); assay: KRas binding assay (TR-FRET tracer displacement), KRas G12A; settings: TR-FRET tracer displacement, KRas G12A
T4 construct: Biotinylated KRas (corresponding to amino acids 1-169, produced at Accelegan Inc.); biotin (biotinylated); purchased Accelegan Inc
T4 sequence (P01116 1-169 isoform P01116-2 G12A): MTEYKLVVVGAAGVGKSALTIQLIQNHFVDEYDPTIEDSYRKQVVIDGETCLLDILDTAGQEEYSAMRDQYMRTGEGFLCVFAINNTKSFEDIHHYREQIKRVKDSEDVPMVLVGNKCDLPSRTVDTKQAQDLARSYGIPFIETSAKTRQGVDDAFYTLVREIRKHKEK

[6] = test system: KRas-mediated phosphorylation of ERK in A549 cells; assay: Inhibition of KRas-mediated phosphorylation of ERK (Cisbio HTRF pERK), A549 cells; type: cell-based; settings: Homo sapiens, A549, 3 h, single point, 100 nM compound, 3 hrs
Summary of the method: (§2)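 HTRF readout of phospho-ERK in cell lysates after 3 hrs of compound exposure. Dosing: 10 uM top, 3-fold steps, 10 doses, final DMSO 0.8%. Min control: 0.2 uM Trametinib. Lysis ran 40 mins at 4° C, and antibody detection 2 hrs at room temperature.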

[7] = biological target: T5, KRas^G12V (Homo sapiens, UniProt P01116, G12V); assay: KRas binding assay (TR-FRET tracer displacement), KRas G12V
T5 construct: Biotinylated KRas (corresponding to amino acids 1-169, produced at Accelegan Inc.); biotin (biotinylated); purchased Accelegan Inc
T5 sequence (P01116 1-169 isoform P01116-2 G12V): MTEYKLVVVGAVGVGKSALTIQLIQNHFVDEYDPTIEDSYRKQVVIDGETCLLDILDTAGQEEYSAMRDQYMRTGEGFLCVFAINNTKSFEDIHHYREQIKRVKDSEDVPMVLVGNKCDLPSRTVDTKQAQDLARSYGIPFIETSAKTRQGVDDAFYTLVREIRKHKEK

[8] = test system: KRas-mediated phosphorylation of ERK in H727 cells; assay: Inhibition of KRas-mediated phosphorylation of ERK (Cisbio HTRF pERK), H727 cells; type: cell-based; settings: Homo sapiens; for inhibition at 0.1 µM: NCI-H727, 3 h, single point, 100 nM compound, 3 hrs, H727 cells; for IC50: NCI-H727, H727 cells, HTRF pERK
Summary of the method: as §1

[9] = biological target: T6, KRas^G12C (Homo sapiens, UniProt P01116, G12C); assay: KRas binding assay (TR-FRET tracer displacement), KRas G12C; settings: TR-FRET tracer displacement, KRas G12C
T6 construct: Biotinylated KRas (corresponding to amino acids 1-169, produced at Accelegan Inc.); biotin (biotinylated); purchased Accelegan Inc
T6 sequence (P01116 1-169 isoform P01116-2 G12C): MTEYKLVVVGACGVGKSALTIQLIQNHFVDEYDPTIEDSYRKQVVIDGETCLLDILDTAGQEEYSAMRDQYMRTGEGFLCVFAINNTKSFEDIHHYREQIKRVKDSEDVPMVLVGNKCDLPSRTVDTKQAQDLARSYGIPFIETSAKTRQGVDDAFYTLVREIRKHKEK

[10] = biological target: T7, KRas^G12R (Homo sapiens, UniProt P01116, G12R); assay: KRas binding assay (TR-FRET tracer displacement), KRas G12R
T7 construct: Biotinylated KRas (corresponding to amino acids 1-169, produced at Accelegan Inc.); biotin (biotinylated); purchased Accelegan Inc
T7 sequence (P01116 1-169 isoform P01116-2 G12R): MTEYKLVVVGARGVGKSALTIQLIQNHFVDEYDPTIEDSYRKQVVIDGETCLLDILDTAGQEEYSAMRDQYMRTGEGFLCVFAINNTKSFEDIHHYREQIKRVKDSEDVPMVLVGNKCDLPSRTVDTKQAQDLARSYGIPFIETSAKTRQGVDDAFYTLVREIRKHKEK

[11] = test system: KRas-mediated phosphorylation of ERK in AsPC-1 cells; assay: Inhibition of KRas-mediated phosphorylation of ERK (Cisbio HTRF pERK), AsPC-1 cells; type: cell-based; settings: Homo sapiens; for inhibition at 0.1 µM: ASPC1, 3 h, single point, 100 nM compound, 3 hrs, AsPC-1 cells; for IC50: ASPC1, AsPC-1 cells, HTRF pERK
Summary of the method: as §1

[12] = biological target: T8, KRas^Q61H (Homo sapiens, UniProt P01116, Q61H); assay: KRas binding assay (TR-FRET tracer displacement), KRas Q61H; settings: TR-FRET tracer displacement, KRas Q61H
T8 construct: Biotinylated KRas (corresponding to amino acids 1-169, produced at Accelegan Inc.); biotin (biotinylated); purchased Accelegan Inc
T8 sequence (P01116 1-169 isoform P01116-2 Q61H): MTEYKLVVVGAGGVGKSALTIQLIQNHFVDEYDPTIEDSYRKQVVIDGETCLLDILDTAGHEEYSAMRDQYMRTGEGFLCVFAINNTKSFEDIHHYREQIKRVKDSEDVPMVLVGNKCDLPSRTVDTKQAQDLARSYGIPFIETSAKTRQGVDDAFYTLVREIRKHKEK

[13] = biological target: T9, KRas^G12D (Homo sapiens, UniProt P01116, G12D); assay: KRas binding assay (TR-FRET tracer displacement), KRas G12D
T9 construct: Biotinylated KRas (corresponding to amino acids 1-169, produced at Accelegan Inc.); biotin (biotinylated); purchased Accelegan Inc
T9 sequence (P01116 1-169 isoform P01116-2 G12D): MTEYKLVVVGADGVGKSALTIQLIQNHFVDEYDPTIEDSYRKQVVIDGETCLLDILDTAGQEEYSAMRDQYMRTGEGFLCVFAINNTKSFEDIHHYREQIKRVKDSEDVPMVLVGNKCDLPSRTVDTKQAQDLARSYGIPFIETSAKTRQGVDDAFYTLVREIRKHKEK

[14] = test system: KRas-mediated phosphorylation of ERK in H460 cells; assay: Inhibition of KRas-mediated phosphorylation of ERK (Cisbio HTRF pERK), H460 cells; type: cell-based; settings: Homo sapiens, NCI-H460, 3 h, single point, 100 nM compound, 3 hrs
Summary of the method: as §1

[15] = test system: KRas-mediated phosphorylation of ERK in HCT116 cells; assay: Inhibition of KRas-mediated phosphorylation of ERK (Cisbio HTRF pERK), HCT116 cells; type: cell-based; settings: Homo sapiens, HCT-116, 3 h, single point, 100 nM compound, 3 hrs
Summary of the method: as §2

T1 sequence (P01116 1-169 isoform P01116-2 G12S): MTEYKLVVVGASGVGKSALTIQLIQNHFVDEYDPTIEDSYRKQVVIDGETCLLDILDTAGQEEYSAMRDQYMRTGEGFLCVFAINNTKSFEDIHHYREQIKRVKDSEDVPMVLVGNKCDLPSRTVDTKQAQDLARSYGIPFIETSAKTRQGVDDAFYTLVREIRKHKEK

IC50 [1] [nM]	IC50 [3] [nM]	IC50 [4] [nM]	IC50 [5] [nM]	IC50 [7] [nM]	IC50 [9] [nM]	IC50 [10] [nM]	IC50 [12] [nM]	IC50 [13] [nM]	IC50 [8] [nM]	IC50 [11] [nM]	SMILES	inhibition at 0.1 µM [2] [%]	inhibition at 0.1 µM [6] [%]	inhibition at 0.1 µM [8] [%]	inhibition at 0.1 µM [11] [%]	inhibition at 0.1 µM [14] [%]	inhibition at 0.1 µM [15] [%]
1400	1410	1370	1520	1050	1520	2670	2280	933	–	–	Cc1cc2[nH]c(=O)[nH]c2c(-c2ncc3c(N4CCC[C@@](C)(O)C4)nc(OCC45CCCN4CCC5)nc3c2F)c1C [Example 733, 4-(8-fluoro-4-((R)-3-hydroxy-3-methylpiperidin-1-yl)-2-((tetrahydro-1H-pyrrolizin-7a(5H)-yl)methoxy)pyrido[4,3-d]pyrimidin-7-yl)-5,6-dimethyl-1,3-dihydro-2H-benzo[d]imidazol-2-one]	-2	7	-10	-27	–	–
11600	10500	10500	10300	11600	10600	20600	11400	8110	–	–	Cc1cc2[nH]nnc2c(-c2ncc3c(N4CCC[C@@](C)(O)C4)nc(OCC45CCCN4CCC5)nc3c2F)c1C [Example 734, (3R)-1-(7-(5,6-dimethyl-1H-benzo[d][1,2,3]triazol-4-yl)-8-fluoro-2-((hexahydro-1H-pyrrolizin-7a-yl)methoxy)pyrido[4,3-d]pyrimidin-4-yl)-3-methylpiperidin-3-ol]	–	–	-3	-18	-3	-13
2770	2140	1840	2680	2590	3130	3960	3530	1980	–	–	C[C@@]1(O)CCCN(c2nc(OCC34CCCN3CCC4)nc3c(F)c(-c4ccc(F)c5sc(N)nc45)ncc23)C1 [Example 735, (R)-1-(7-(2-amino-7-fluorobenzo[d]thiazol-4-yl)-8-fluoro-2-((hexahydro-1H-pyrrolizin-7a-yl)methoxy)pyrido[4,3-d]pyrimidin-4-yl)-3-methylpiperidin-3-ol]	–	–	-31	14	5	-2
75	93	139	173	664	111	640	26	2330	–	–	Nc1nc2c(-c3ncc4c(N5CCCC6(C5)NC(=O)NC6=O)nc(OCC56CCCN5CCC6)nc4c3F)ccc(F)c2s1 (stereo not drawn) [Example 736, 7-(7-(2-amino-7-fluorobenzo[d]thiazol-4-yl)-8-fluoro-2-((tetrahydro-1H-pyrrolizin-7a(5H)-yl)methoxy)pyrido[4,3-d]pyrimidin-4-yl)-1,3,7-triazaspiro[4.5]decane-2,4-dione]	5	2	-4	-3	–	–
91	172	167	136	93	165	139	185	372	3830	5220	Oc1cc2ccccc2c(-c2ncc3c(N4C[C@@H]5C[C@H](C4)[C@H](O)C5)nc(OC[C@@]45CCCN4C[C@H](F)C5)nc3c2F)c1F [Example 751, (1R,5R,6R)-3-(8-fluoro-7-(2-fluoro-3-hydroxynaphthalen-1-yl)-2-(((2R,7aS)-2-fluorohexahydro-1H-pyrrolizin-7a-yl)methoxy)pyrido[4,3-d]pyrimidin-4-yl)-3-azabicyclo[3.2.1]octan-6-ol]	-17	-10	-50	-2	–	–
43	238	141	82	42	46	101	203	12	> 10000	9840	CN(C)C(=O)c1cc2n(n1)CCCN(c1nc(OCC34CCCN3CCC4)nc3c(F)c(-c4c5ccccc5cc5[nH]ncc45)ncc13)C2 [Example 757, 5-(7-(1H-benzo[f]indazol-4-yl)-8-fluoro-2-((hexahydro-1H-pyrrolizin-7a-yl)methoxy)pyrido[4,3-d]pyrimidin-4-yl)-N,N-dimethyl-5,6,7,8-tetrahydro-4H-pyrazolo[1,5-a][1,4]diazepine-2-carboxamide]	10	2	–	–	–	–
100	146	156	139	83	144	132	164	268	2910	5910	Oc1cc2ccccc2c(-c2ncc3c(N4C[C@@H]5C[C@H](C4)[C@H](O)C5)nc(OC[C@@]45CCCN4C[C@H](F)C5)nc3c2F)c1Cl [Example 765, (1R,5R,6R)-3-(7-(2-chloro-3-hydroxynaphthalen-1-yl)-8-fluoro-2-(((2R,7aS)-2-fluorohexahydro-1H-pyrrolizin-7a-yl)methoxy)pyrido[4,3-d]pyrimidin-4-yl)-3-azabicyclo[3.2.1]octan-6-ol]	-5	28	-13	-6	–	–
414	551	754	716	727	635	778	891	2450	> 10000	8950	Oc1cc(-c2ncc3c(N4C[C@@H]5C[C@H](C4)[C@H](O)C5)nc(OC[C@@]45CCCN4C[C@H](F)C5)nc3c2F)c2ccccc2c1Br [Example 781, (1R,5R,6R)-3-(7-(4-bromo-3-hydroxynaphthalen-1-yl)-8-fluoro-2-(((2R,7aS)-2-fluorohexahydro-1H-pyrrolizin-7a-yl)methoxy)pyrido[4,3-d]pyrimidin-4-yl)-3-azabicyclo[3.2.1]octan-6-ol]	10	-24	–	–	–	–
475	471	665	717	1920	480	4490	746	1320	–	–	Cc1cc2c(c(-c3ncc4c(N5CCC[C@@](C)(O)C5)nc(OCC56CCCN5CCC6)nc4c3F)c1C)CC(=O)N2 [Example 784, 4-(8-fluoro-2-((hexahydro-1H-pyrrolizin-7a-yl)methoxy)-4-((R)-3-hydroxy-3-methylpiperidin-1-yl)pyrido[4,3-d]pyrimidin-7-yl)-5,6-dimethylindolin-2-one]	–	–	0	19	9	9
18	12	26	21	16	25	31	23	10	> 10000	> 10000	Cc1cc2[nH]nnc2c(-c2ncc3c(N4CCCC5(CNS(=O)(=O)N5)C4)nc(OCC45CCCN4CCC5)nc3c2F)c1C (stereo not drawn) [Example 855, 7-(7-(5,6-dimethyl-1H-benzo[d][1,2,3]triazol-4-yl)-8-fluoro-2-((tetrahydro-1H-pyrrolizin-7a(5H)-yl)methoxy)pyrido[4,3-d]pyrimidin-4-yl)-2-thia-1,3,7-triazaspiro[4.5]decane 2,2-dioxide]	–	–	–	–	–	–
